Assay results reported in ChEMBL document CHEMBL3627608, “Crystal structures of human RIP2 kinase catalytic domain complexed with ATP-competitive inhibitors: Foundations for understanding inhibitor selectivity” (Bioorg Med Chem, 2015).

Experiments:
[1] = molecular target: Ribosomal protein S6 kinase beta-2 (Homo sapiens) (UniProt Q9UBS0); test: Inhibition of RPS6KB2 (unknown origin) at 10 uM after 120 mins P33 radiolabeled kinase activity assay
[2] = molecular target: T1, Serine/threonine-protein kinase haspin (Homo sapiens) (UniProt Q8TF76); test: Inhibition of Haspin (unknown origin) at 10 uM after 120 mins P33 radiolabeled kinase activity assay
T1 sequence (whole entry): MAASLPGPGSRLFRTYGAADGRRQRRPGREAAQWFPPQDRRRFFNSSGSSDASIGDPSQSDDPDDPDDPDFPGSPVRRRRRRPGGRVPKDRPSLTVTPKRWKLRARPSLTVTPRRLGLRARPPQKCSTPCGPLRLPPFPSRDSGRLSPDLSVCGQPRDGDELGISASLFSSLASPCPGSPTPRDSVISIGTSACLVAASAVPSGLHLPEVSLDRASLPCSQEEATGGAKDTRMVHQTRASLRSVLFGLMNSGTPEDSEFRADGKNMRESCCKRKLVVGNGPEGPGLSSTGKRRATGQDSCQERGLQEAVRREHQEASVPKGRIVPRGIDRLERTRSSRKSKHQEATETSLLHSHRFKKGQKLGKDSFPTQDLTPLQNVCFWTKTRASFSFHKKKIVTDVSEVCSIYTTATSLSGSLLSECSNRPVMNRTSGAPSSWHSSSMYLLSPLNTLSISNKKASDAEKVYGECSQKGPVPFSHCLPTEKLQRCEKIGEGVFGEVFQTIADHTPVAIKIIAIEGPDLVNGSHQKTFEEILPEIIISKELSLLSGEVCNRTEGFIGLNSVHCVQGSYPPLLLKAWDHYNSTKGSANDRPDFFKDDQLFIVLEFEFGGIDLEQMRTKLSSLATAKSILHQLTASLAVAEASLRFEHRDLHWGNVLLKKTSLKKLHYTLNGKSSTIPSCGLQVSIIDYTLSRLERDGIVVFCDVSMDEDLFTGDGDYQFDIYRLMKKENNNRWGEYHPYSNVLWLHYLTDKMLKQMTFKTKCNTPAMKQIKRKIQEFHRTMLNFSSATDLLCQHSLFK

[3] = molecular target: Cyclin-dependent kinase 5/CDK5 activator 1 (Homo sapiens) (UniProt Q00535+Q15078); test: Inhibition of CDK5/p25 (unknown origin) at 10 uM after 120 mins P33 radiolabeled kinase activity assay; type: protein-complex assay
[4] = molecular target: Ribosomal protein S6 kinase alpha-5 (Homo sapiens) (UniProt O75582); test: Inhibition of MSK1 (unknown origin) at 10 uM after 120 mins P33 radiolabeled kinase activity assay
[5] = molecular target: Serine/threonine-protein kinase N1 (Homo sapiens) (UniProt Q16512); test: Inhibition of PKN1 (unknown origin) at 10 uM after 120 mins P33 radiolabeled kinase activity assay
[6] = molecular target: Calcium/calmodulin-dependent protein kinase type 1G (Homo sapiens) (UniProt Q96NX5); test: Inhibition of CAMK1gamma (unknown origin) at 10 uM after 120 mins P33 radiolabeled kinase activity assay
[7] = molecular target: T2, Myosin-IIIb (Homo sapiens) (UniProt Q8WXR4); test: Inhibition of MYO3b (unknown origin) at 10 uM after 120 mins P33 radiolabeled kinase activity assay
T2 sequence (whole entry): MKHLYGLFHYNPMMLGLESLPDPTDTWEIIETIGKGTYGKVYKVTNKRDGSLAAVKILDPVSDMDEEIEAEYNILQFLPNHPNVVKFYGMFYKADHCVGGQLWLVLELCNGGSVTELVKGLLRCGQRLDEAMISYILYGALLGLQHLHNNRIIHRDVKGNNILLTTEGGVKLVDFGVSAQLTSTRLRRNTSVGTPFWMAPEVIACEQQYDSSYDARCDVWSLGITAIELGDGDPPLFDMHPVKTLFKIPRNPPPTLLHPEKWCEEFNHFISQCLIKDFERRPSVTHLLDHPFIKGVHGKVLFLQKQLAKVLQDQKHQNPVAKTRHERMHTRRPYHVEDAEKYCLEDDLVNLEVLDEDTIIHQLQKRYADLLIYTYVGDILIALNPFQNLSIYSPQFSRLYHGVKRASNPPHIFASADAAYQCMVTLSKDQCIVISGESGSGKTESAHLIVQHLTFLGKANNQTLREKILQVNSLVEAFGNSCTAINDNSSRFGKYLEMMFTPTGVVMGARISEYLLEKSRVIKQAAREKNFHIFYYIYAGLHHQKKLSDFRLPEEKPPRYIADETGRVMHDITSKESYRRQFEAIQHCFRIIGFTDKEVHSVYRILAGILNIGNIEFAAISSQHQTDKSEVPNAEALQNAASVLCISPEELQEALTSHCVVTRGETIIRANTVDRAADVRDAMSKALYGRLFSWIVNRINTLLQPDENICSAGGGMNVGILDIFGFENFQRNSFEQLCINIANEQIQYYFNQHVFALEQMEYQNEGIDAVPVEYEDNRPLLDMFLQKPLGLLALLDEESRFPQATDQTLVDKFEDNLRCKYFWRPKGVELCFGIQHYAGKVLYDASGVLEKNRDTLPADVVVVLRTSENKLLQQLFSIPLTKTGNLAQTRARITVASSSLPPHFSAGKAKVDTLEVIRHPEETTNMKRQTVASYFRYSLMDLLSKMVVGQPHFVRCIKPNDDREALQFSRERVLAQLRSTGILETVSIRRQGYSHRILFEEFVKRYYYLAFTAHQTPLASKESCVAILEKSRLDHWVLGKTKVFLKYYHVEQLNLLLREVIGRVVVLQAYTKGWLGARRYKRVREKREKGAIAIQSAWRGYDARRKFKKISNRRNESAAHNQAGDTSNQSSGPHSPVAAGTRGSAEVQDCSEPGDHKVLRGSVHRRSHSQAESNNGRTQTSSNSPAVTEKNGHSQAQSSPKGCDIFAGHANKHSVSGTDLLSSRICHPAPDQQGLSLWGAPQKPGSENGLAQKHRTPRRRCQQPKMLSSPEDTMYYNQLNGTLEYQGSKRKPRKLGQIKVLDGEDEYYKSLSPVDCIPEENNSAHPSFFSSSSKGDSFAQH

[8] = molecular target: Casein kinase I isoform gamma-3 (Homo sapiens) (UniProt Q9Y6M4); test: Inhibition of CK1gamma3 (unknown origin) at 10 uM after 120 mins P33 radiolabeled kinase activity assay
Sequence of Casein kinase I isoform gamma-3 (Homo sapiens) (Q9Y6M4 whole entry, looked up, canonical isoform): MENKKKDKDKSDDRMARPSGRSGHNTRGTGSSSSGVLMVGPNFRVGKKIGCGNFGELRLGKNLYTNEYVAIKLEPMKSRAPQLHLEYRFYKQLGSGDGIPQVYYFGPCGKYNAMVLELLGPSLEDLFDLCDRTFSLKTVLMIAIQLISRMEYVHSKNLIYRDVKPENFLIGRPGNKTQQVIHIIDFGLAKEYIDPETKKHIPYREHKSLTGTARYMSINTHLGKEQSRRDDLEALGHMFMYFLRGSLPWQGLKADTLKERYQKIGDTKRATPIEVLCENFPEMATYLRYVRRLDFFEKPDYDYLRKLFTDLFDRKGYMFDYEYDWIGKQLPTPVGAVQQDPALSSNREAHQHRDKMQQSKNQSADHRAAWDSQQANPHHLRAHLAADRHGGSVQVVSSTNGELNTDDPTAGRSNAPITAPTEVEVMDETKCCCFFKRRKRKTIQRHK

Sequence of Cyclin-dependent kinase 5/CDK5 activator 1 (Homo sapiens) (Q00535 whole entry): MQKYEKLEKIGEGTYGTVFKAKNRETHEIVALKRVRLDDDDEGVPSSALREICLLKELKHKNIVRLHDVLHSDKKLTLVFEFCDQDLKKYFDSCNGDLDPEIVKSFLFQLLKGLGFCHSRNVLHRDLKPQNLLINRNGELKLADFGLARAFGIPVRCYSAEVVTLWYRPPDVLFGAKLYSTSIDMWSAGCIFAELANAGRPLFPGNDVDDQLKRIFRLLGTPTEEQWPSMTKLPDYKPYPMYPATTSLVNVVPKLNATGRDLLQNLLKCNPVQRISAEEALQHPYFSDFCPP
Sequence of Cyclin-dependent kinase 5/CDK5 activator 1 (Homo sapiens) (Q15078 99-307 partner limits assumed): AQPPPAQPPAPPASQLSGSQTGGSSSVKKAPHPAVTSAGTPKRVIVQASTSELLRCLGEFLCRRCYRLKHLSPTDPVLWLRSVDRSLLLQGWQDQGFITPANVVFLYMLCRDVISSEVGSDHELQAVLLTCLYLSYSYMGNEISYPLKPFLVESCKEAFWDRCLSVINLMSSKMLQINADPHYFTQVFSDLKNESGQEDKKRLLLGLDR
Sequence of Calcium/calmodulin-dependent protein kinase type 1G (Homo sapiens) (Q96NX5 whole entry): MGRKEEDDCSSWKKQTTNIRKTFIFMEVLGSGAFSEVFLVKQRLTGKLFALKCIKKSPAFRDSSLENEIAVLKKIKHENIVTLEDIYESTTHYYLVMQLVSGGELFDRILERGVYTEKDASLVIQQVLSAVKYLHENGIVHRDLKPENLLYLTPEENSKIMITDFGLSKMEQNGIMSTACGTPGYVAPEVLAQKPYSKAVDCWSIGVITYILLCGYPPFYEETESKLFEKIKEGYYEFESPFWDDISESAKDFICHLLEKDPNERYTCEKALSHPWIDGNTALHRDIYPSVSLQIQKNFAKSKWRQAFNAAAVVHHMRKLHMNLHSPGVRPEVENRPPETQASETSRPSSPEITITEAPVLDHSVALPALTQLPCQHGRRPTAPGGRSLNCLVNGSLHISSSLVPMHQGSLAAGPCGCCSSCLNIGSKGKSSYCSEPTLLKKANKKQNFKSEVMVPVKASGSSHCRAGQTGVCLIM
Sequence of Ribosomal protein S6 kinase alpha-5 (Homo sapiens) (O75582 whole entry, looked up): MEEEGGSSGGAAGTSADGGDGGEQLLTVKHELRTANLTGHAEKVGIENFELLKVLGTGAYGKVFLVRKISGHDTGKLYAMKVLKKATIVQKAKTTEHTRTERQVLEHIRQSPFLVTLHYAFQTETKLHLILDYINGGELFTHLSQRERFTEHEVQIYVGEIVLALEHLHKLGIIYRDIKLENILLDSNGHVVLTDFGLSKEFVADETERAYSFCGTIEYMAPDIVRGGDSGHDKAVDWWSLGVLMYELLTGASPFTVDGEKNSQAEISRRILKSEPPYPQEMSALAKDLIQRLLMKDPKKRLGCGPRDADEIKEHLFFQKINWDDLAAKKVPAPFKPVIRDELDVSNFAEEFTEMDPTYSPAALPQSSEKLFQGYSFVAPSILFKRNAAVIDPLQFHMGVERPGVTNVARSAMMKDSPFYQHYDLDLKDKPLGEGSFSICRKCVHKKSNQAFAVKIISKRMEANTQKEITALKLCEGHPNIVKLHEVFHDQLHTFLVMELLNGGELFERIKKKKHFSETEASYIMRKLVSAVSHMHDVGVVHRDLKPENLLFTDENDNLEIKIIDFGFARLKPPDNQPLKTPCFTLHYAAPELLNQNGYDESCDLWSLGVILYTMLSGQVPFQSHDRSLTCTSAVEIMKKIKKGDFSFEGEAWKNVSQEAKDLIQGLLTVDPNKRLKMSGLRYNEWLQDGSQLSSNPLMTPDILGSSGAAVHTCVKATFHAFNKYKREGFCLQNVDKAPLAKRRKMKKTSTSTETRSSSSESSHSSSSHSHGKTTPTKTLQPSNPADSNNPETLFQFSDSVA
Sequence of Serine/threonine-protein kinase N1 (Homo sapiens) (Q16512 2-942 limits assumed): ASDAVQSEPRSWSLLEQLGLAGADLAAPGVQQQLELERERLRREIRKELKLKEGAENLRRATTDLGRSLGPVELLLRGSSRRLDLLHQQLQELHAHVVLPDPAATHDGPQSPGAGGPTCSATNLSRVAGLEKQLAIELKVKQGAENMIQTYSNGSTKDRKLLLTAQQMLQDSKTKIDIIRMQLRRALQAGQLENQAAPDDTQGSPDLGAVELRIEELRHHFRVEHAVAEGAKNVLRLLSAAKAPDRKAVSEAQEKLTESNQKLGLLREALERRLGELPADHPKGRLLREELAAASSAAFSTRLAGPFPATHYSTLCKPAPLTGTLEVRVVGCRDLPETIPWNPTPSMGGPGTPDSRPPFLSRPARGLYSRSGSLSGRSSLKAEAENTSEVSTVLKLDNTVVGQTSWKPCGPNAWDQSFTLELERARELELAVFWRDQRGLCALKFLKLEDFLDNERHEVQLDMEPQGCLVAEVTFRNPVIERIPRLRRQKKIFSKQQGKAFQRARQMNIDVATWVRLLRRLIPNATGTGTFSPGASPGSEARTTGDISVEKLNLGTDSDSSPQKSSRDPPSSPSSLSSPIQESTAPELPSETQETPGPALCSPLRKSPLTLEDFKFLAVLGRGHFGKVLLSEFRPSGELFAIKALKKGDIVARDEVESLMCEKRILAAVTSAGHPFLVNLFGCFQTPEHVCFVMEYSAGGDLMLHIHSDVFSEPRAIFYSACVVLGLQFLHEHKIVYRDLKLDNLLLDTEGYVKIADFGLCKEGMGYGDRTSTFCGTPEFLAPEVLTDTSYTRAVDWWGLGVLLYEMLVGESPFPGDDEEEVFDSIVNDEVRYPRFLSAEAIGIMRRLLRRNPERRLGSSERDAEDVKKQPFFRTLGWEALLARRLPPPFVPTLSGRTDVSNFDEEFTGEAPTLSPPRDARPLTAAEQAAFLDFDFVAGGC
Sequence of Ribosomal protein S6 kinase beta-2 (Homo sapiens) (Q9UBS0 whole entry): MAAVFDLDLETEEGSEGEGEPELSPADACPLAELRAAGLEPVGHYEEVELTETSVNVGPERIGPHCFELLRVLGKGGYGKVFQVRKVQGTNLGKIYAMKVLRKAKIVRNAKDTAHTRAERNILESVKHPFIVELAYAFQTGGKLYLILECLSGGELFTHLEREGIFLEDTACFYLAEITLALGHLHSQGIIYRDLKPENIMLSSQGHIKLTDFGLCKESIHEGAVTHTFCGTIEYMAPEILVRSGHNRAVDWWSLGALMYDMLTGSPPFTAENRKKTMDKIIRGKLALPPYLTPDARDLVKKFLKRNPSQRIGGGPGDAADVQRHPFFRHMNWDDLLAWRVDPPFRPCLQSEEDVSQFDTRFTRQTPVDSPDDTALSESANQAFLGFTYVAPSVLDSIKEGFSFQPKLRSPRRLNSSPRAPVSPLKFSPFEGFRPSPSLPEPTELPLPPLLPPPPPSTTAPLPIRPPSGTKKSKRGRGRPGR

inhibition [1] [%]	inhibition [2] [%]	inhibition [3] [%]	inhibition [4] [%]	inhibition [5] [%]	inhibition [6] [%]	inhibition [7] [%]	inhibition [8] [%]	Compound
6.27	11.4	1.93	7.07	10.6	8.82	2.38	0.42	COCCNC(=O)c1ccc2c(c1)nc(-c1cnc(-c3ccc(Cl)cc3)[nH]1)n2CCOC
11.1	12.1	92.6	5.17	5.55	66.6	71.7	5.39	CS(=O)(=O)c1cccc(Nc2nccc(-c3sc(N4CCOCC4)nc3-c3cccc(NS(=O)(=O)c4c(F)cccc4F)c3)n2)c1
52.2	12.3	49.4	49.5	25.1	20.9	92.5	3.82	CC(C)(C)c1cc(NC(=O)Nc2ccc(Oc3ccncc3)cc2)no1
